Test results taken from PubChem BioAssay (NCI).
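These data come from cells grown in 96-well plates and exposed to compound for 48 hours at five concentrations. The concentration for 50% growth inhibition is given as GI50. TGI: concentration producing complete growth inhibition.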

Columns and labels:
Assay in all cases: DTP human tumour cell line panel, 48 h
NCI-H23 lung = tested on: NCI-H23 lung
NCI/ADR-RES ovarian = tested on: NCI/ADR-RES ovarian
HCT-15 colon = tested on: HCT-15 colon
HL-60(TB) leukemia = tested on: HL-60(TB) leukemia
MALME-3M melanoma = tested on: MALME-3M melanoma
SF-295 CNS = tested on: SF-295 CNS
SK-MEL-5 melanoma = tested on: SK-MEL-5 melanoma
OVCAR-3 ovarian = tested on: OVCAR-3 ovarian
EKVX NSCLC = tested on: EKVX NSCLC
U251 CNS = tested on: U251 CNS
RXF 393 renal = tested on: RXF 393 renal
BT-549 breast = tested on: BT-549 breast
SF-539 CNS = tested on: SF-539 CNS
PC-3 prostate = tested on: PC-3 prostate
IGROV1 ovarian = tested on: IGROV1 ovarian
TK-10 renal = tested on: TK-10 renal
SNB-75 CNS = tested on: SNB-75 CNS
HOP-62 NSCLC = tested on: HOP-62 NSCLC
OVCAR-5 ovarian = tested on: OVCAR-5 ovarian
HT29 colon = tested on: HT29 colon
CAKI-1 renal = tested on: CAKI-1 renal
DU-145 prostate = tested on: DU-145 prostate
SN12C renal = tested on: SN12C renal
HOP-92 NSCLC = tested on: HOP-92 NSCLC
UACC-62 melanoma = tested on: UACC-62 melanoma
T-47D breast = tested on: T-47D breast
OVCAR-8 ovarian = tested on: OVCAR-8 ovarian
A549 NSCLC = tested on: A549 NSCLC
SF-268 CNS = tested on: SF-268 CNS
786-0 renal = tested on: 786-0 renal
SK-MEL-28 melanoma = tested on: SK-MEL-28 melanoma
M14 melanoma = tested on: M14 melanoma
MDA-MB-435 = tested on: MDA-MB-435
MDA-MB-231 breast = tested on: MDA-MB-231 breast
CCRF-CEM leukemia = tested on: CCRF-CEM leukemia
OVCAR-4 ovarian = tested on: OVCAR-4 ovarian
KM12 colon = tested on: KM12 colon
LOX IMVI melanoma = tested on: LOX IMVI melanoma
COLO 205 colon = tested on: COLO 205 colon
MOLT-4 leukemia = tested on: MOLT-4 leukemia
NCI-H226 lung = tested on: NCI-H226 lung
SK-MEL-2 melanoma = tested on: SK-MEL-2 melanoma
SNB-19 CNS = tested on: SNB-19 CNS
UACC-257 melanoma = tested on: UACC-257 melanoma
K-562 leukemia = tested on: K-562 leukemia
ACHN renal = tested on: ACHN renal
UO-31 renal = tested on: UO-31 renal
MCF7 breast = tested on: MCF7 breast
SR leukemia = tested on: SR leukemia
HCT-116 colon = tested on: HCT-116 colon
NCI-H460 lung = tested on: NCI-H460 lung
SW-620 colon = tested on: SW-620 colon
SK-OV-3 ovarian = tested on: SK-OV-3 ovarian

With `CCC(C)Oc1nc2c(c(=O)n(C)c(=O)n2C)n1C` (stereo unspecified) the GI50 (NCI-H23 lung) was > 100 µM, the TGI (NCI-H23 lung) was > 100 µM and the GI50 (NCI/ADR-RES ovarian) was > 100 µM. The TGI (NCI/ADR-RES ovarian) was > 100 µM, the GI50 (HCT-15 colon) was > 100 µM and the TGI (HCT-15 colon) was > 100 µM. The GI50 (HL-60(TB) leukemia) was > 100 µM, the TGI (HL-60(TB) leukemia) was > 100 µM and the GI50 (MALME-3M melanoma) was > 100 µM. For the same molecule, the TGI (MALME-3M melanoma) was > 100 µM, the GI50 (SF-295 CNS) was > 100 µM and the TGI (SF-295 CNS) was > 100 µM. For the same molecule, the GI50 (SK-MEL-5 melanoma) was > 100 µM, the TGI (SK-MEL-5 melanoma) was > 100 µM and the GI50 (OVCAR-3 ovarian) was > 100 µM. The TGI (OVCAR-3 ovarian) was > 100 µM, the GI50 (EKVX NSCLC) was > 100 µM and the TGI (EKVX NSCLC) was > 100 µM. The GI50 (U251 CNS) was > 100 µM, the TGI (U251 CNS) was > 100 µM and the GI50 (RXF 393 renal) was > 100 µM. For the same molecule, the TGI (RXF 393 renal) was > 100 µM, the GI50 (BT-549 breast) was > 100 µM and the TGI (BT-549 breast) was > 100 µM. The GI50 (SF-539 CNS) was > 100 µM, the TGI (SF-539 CNS) was > 100 µM and the GI50 (PC-3 prostate) was > 100 µM. The TGI (PC-3 prostate) was > 100 µM, the GI50 (IGROV1 ovarian) was > 100 µM and the TGI (IGROV1 ovarian) was > 100 µM. For the same molecule, the GI50 (TK-10 renal) was > 100 µM, the TGI (TK-10 renal) was > 100 µM and the GI50 (SNB-75 CNS) was > 100 µM. For the same molecule, the TGI (SNB-75 CNS) was > 100 µM, the GI50 (HOP-62 NSCLC) was > 100 µM and the TGI (HOP-62 NSCLC) was > 100 µM. For the same molecule, the GI50 (OVCAR-5 ovarian) was > 100 µM, the TGI (OVCAR-5 ovarian) was > 100 µM and the GI50 (HT29 colon) was > 100 µM. The TGI (HT29 colon) was > 100 µM, the GI50 (CAKI-1 renal) was > 100 µM and the TGI (CAKI-1 renal) was > 100 µM. The GI50 (DU-145 prostate) was > 100 µM, the TGI (DU-145 prostate) was > 100 µM and the GI50 (SN12C renal) was > 100 µM. The TGI (SN12C renal) was > 100 µM, the GI50 (HOP-92 NSCLC) was > 100 µM and the TGI (HOP-92 NSCLC) was > 100 µM. The GI50 (UACC-62 melanoma) was > 100 µM, the TGI (UACC-62 melanoma) was > 100 µM and the GI50 (T-47D breast) was > 100 µM. The TGI (T-47D breast) was > 100 µM, the GI50 (OVCAR-8 ovarian) was > 100 µM and the TGI (OVCAR-8 ovarian) was > 100 µM. For the same molecule, the GI50 (A549 NSCLC) was > 100 µM, the TGI (A549 NSCLC) was > 100 µM and the GI50 (SF-268 CNS) was > 100 µM. For the same molecule, the TGI (SF-268 CNS) was > 100 µM, the GI50 (786-0 renal) was > 100 µM and the TGI (786-0 renal) was > 100 µM. For the same molecule, the GI50 (SK-MEL-28 melanoma) was > 100 µM, the TGI (SK-MEL-28 melanoma) was > 100 µM and the GI50 (M14 melanoma) was > 100 µM. The TGI (M14 melanoma) was > 100 µM, the GI50 (MDA-MB-435) was > 100 µM and the TGI (MDA-MB-435) was > 100 µM. For the same molecule, the GI50 (MDA-MB-231 breast) was > 100 µM, the TGI (MDA-MB-231 breast) was > 100 µM and the GI50 (CCRF-CEM leukemia) was > 100 µM. The TGI (CCRF-CEM leukemia) was > 100 µM, the GI50 (OVCAR-4 ovarian) was > 100 µM and the TGI (OVCAR-4 ovarian) was > 100 µM. The GI50 (KM12 colon) was > 100 µM, the TGI (KM12 colon) was > 100 µM and the GI50 (LOX IMVI melanoma) was > 100 µM. For the same molecule, the TGI (LOX IMVI melanoma) was > 100 µM, the GI50 (COLO 205 colon) was > 100 µM and the TGI (COLO 205 colon) was > 100 µM. For the same molecule, the GI50 (MOLT-4 leukemia) was > 100 µM, the TGI (MOLT-4 leukemia) was > 100 µM and the GI50 (NCI-H226 lung) was > 100 µM. For the same molecule, the TGI (NCI-H226 lung) was > 100 µM, the GI50 (SK-MEL-2 melanoma) was > 100 µM and the TGI (SK-MEL-2 melanoma) was > 100 µM. For the same molecule, the GI50 (SNB-19 CNS) was > 100 µM, the TGI (SNB-19 CNS) was > 100 µM and the GI50 (UACC-257 melanoma) was > 100 µM. The TGI (UACC-257 melanoma) was > 100 µM, the GI50 (K-562 leukemia) was > 100 µM and the TGI (K-562 leukemia) was > 100 µM. The GI50 (ACHN renal) was > 100 µM, the TGI (ACHN renal) was > 100 µM and the GI50 (UO-31 renal) was > 100 µM. For the same molecule, the TGI (UO-31 renal) was > 100 µM, the GI50 (MCF7 breast) was > 100 µM and the TGI (MCF7 breast) was > 100 µM. The GI50 (SR leukemia) was > 100 µM, the TGI (SR leukemia) was > 100 µM and the GI50 (HCT-116 colon) was > 100 µM. For the same molecule, the TGI (HCT-116 colon) was > 100 µM, the GI50 (NCI-H460 lung) was > 100 µM and the TGI (NCI-H460 lung) was > 100 µM. The GI50 (SW-620 colon) was > 100 µM, the TGI (SW-620 colon) was > 100 µM and the GI50 (SK-OV-3 ovarian) was > 100 µM. For the same molecule, the TGI (SK-OV-3 ovarian) was > 100 µM.
`C[N+](C)(C)C(CSSCC(C(=O)[O-])[N+](C)(C)C)C(=O)[O-]` (stereo unspecified) was tested, and the GI50 (SNB-75 CNS) was 32.5 µM, the GI50 (HOP-92 NSCLC) was 72.1 µM and the GI50 (MDA-MB-435) was 25.5 µM. For the same molecule, the TGI (MDA-MB-435) was 71.2 µM.
Work on `O=C1NC(=O)C(Cc2cccc(OCc3ccccc3)c2)C(=O)N1` yielded a GI50 (SR leukemia) of 4.07 µg/mL.
